Source: PubChem BioAssay AID2060511 (Molecular Pharmacology Branch, DTP, NCI, 2025)

System: 422866-222-R5-J1-PDC spheroids with HUVEC/MSC, viability
Assay: Anticancer human tumor 422866-222-R5-J1-PDC patient-derived pancreatic adenocarcinoma cell line growth inhibition [GQUAD]
Details: for IC50: curve of first compound; for viability, T/C: stronger effect = lower value
In short: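 Tumor cells were grown as complex spheroids with HUVEC endothelial cells and mesenchymal stem cells as stroma. G-quadruplex stabilizers were combined with targeted agents over half-log dilutions from near the clinical Cmax, or from 10 microM.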

[1] = second compound 0.0316 µM, first compound 0.0316 µM
[2] = second compound 0.0316 µM, first compound 0.1 µM
[3] = second compound 0.0316 µM, first compound 0.316 µM
[4] = second compound 0.0316 µM, first compound 1 µM
[5] = second compound 0.0316 µM, first compound 3.16 µM
[6] = second compound 0.0316 µM, first compound 10 µM
[7] = second compound 0.1 µM, first compound 0.0316 µM
[8] = second compound 0.1 µM, first compound 0.1 µM
[9] = second compound 0.1 µM, first compound 0.316 µM
[10] = second compound 0.1 µM, first compound 1 µM
[11] = second compound 0.1 µM, first compound 3.16 µM
[12] = second compound 0.1 µM, first compound 10 µM
[13] = second compound 0.316 µM, first compound 0.0316 µM
[14] = second compound 0.316 µM, first compound 0.1 µM
[15] = second compound 0.316 µM, first compound 0.316 µM
[16] = second compound 0.316 µM, first compound 1 µM
[17] = second compound 0.316 µM, first compound 3.16 µM
[18] = second compound 0.316 µM, first compound 10 µM
[19] = second compound 1 µM, first compound 0.0316 µM
[20] = second compound 1 µM, first compound 0.1 µM
[21] = second compound 1 µM, first compound 0.316 µM
[22] = second compound 1 µM, first compound 1 µM
[23] = second compound 1 µM, first compound 3.16 µM
[24] = second compound 1 µM, first compound 10 µM
[25] = second compound 3.16 µM, first compound 0.0316 µM
[26] = second compound 3.16 µM, first compound 0.1 µM
[27] = second compound 3.16 µM, first compound 0.316 µM
[28] = second compound 3.16 µM, first compound 1 µM
[29] = second compound 3.16 µM, first compound 3.16 µM
[30] = second compound 3.16 µM, first compound 10 µM
[31] = second compound 10 µM, first compound 0.0316 µM
[32] = second compound 10 µM, first compound 0.1 µM
[33] = second compound 10 µM, first compound 0.316 µM
[34] = second compound 10 µM, first compound 1 µM
[35] = second compound 10 µM, first compound 3.16 µM
[36] = second compound 10 µM, first compound 10 µM
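Note: spheroids exposed to compounds for seven days before reading.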
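Throughout, for viability, T/C: percent viability relative to DMSO vehicle control taken as 100%.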

O=c1[nH]cc(F)c(=O)[nH]1 + CN(C)c1ccc(Nc2c3ccc(NC(=O)CCN4CCCC4)cc3nc3cc(NC(=O)CCN4CCCC4)ccc23)cc1
IC50 (second compound 0.0316 µM): > 10000 nM
IC50 (second compound 0.1 µM): > 10000 nM
IC50 (second compound 0.316 µM): > 10000 nM
IC50 (second compound 1 µM): > 10000 nM
IC50 (second compound 3.16 µM): > 10000 nM
IC50 (second compound 10 µM): > 10000 nM
viability, T/C [1]: 96.8%
viability, T/C [2]: 86.5%
viability, T/C [3]: 97%
viability, T/C [4]: 84.5%
viability, T/C [5]: 82.2%
viability, T/C [6]: 66.2%
viability, T/C [7]: 99.7%
viability, T/C [8]: 74.6%
viability, T/C [9]: 104%
viability, T/C [10]: 75.5%
viability, T/C [11]: 71.2%
viability, T/C [12]: 72%
viability, T/C [13]: 88.6%
viability, T/C [14]: 79%
viability, T/C [15]: 75.4%
viability, T/C [16]: 88.9%
viability, T/C [17]: 67.3%
viability, T/C [18]: 68.4%
viability, T/C [19]: 88.6%
viability, T/C [20]: 77%
viability, T/C [21]: 86.5%
viability, T/C [22]: 79%
viability, T/C [23]: 70.8%
viability, T/C [24]: 67.9%
viability, T/C [25]: 78.8%
viability, T/C [26]: 79.4%
viability, T/C [27]: 86.2%
viability, T/C [28]: 88.1%
viability, T/C [29]: 65.9%
viability, T/C [30]: 53.6%
viability, T/C [31]: 91.3%
viability, T/C [32]: 108%
viability, T/C [33]: 93.8%
viability, T/C [34]: 84%
viability, T/C [35]: 75.2%
viability, T/C [36]: 76.6%

CC1COCCN1c1cc(C2(O)CC3CCC(C2)O3)c2cnn(-c3ccn[nH]3)c2n1 (stereo not drawn) + CN(C)c1ccc(Nc2c3ccc(NC(=O)CCN4CCCC4)cc3nc3cc(NC(=O)CCN4CCCC4)ccc23)cc1
IC50 (second compound 0.0316 µM): > 10000 nM
IC50 (second compound 0.1 µM): 31.6 nM
IC50 (second compound 0.316 µM): > 10000 nM
IC50 (second compound 1 µM): 31.6 nM
IC50 (second compound 3.16 µM): > 10000 nM
IC50 (second compound 10 µM): 31.6 nM
viability, T/C [1]: 65.6%
viability, T/C [2]: 52.2%
viability, T/C [3]: 55.3%
viability, T/C [4]: 90%
viability, T/C [5]: 87.1%
viability, T/C [6]: 92.5%
viability, T/C [7]: 79.8%
viability, T/C [8]: 49.7%
viability, T/C [9]: 45.7%
viability, T/C [10]: 108%
viability, T/C [11]: 91.4%
viability, T/C [12]: 90.4%
viability, T/C [13]: 78.8%
viability, T/C [14]: 45.1%
viability, T/C [15]: 64.5%
viability, T/C [16]: 90%
viability, T/C [17]: 94.1%
viability, T/C [18]: 88.4%
viability, T/C [19]: 61.9%
viability, T/C [20]: 49.6%
viability, T/C [21]: 39.4%
viability, T/C [22]: 88%
viability, T/C [23]: 89.1%
viability, T/C [24]: 83.8%
viability, T/C [25]: 57.4%
viability, T/C [26]: 51.8%
viability, T/C [27]: 50.2%
viability, T/C [28]: 87.3%
viability, T/C [29]: 95.5%
viability, T/C [30]: 83.9%
viability, T/C [31]: 59.8%
viability, T/C [32]: 47.3%
viability, T/C [33]: 43.1%
viability, T/C [34]: 93.1%
viability, T/C [35]: 88.3%
viability, T/C [36]: 88.5%

COc1ccc([C@@H](O)c2cc(-c3ncnc4cc(N5CCOCC5)ccc34)c(F)cc2Cl)nn1 + CN(C)c1ccc(Nc2c3ccc(NC(=O)CCN4CCCC4)cc3nc3cc(NC(=O)CCN4CCCC4)ccc23)cc1
IC50 (second compound 0.0316 µM): 2850 nM
IC50 (second compound 0.1 µM): 2240 nM
IC50 (second compound 0.316 µM): 2360 nM
IC50 (second compound 1 µM): 2030 nM
IC50 (second compound 3.16 µM): 1800 nM
IC50 (second compound 10 µM): 876 nM
viability, T/C [1]: 97.8%
viability, T/C [2]: 96.5%
viability, T/C [3]: 73.9%
viability, T/C [4]: 76.7%
viability, T/C [5]: 42.2%
viability, T/C [6]: 34.5%
viability, T/C [7]: 98.8%
viability, T/C [8]: 86.9%
viability, T/C [9]: 79.1%
viability, T/C [10]: 63.5%
viability, T/C [11]: 41.5%
viability, T/C [12]: 38.5%
viability, T/C [13]: 90.6%
viability, T/C [14]: 91.2%
viability, T/C [15]: 75%
viability, T/C [16]: 67.1%
viability, T/C [17]: 43.4%
viability, T/C [18]: 31.8%
viability, T/C [19]: 80.2%
viability, T/C [20]: 67.3%
viability, T/C [21]: 76%
viability, T/C [22]: 57.2%
viability, T/C [23]: 45.2%
viability, T/C [24]: 34.8%
viability, T/C [25]: 69.7%
viability, T/C [26]: 81.6%
viability, T/C [27]: 65.5%
viability, T/C [28]: 57.9%
viability, T/C [29]: 43.1%
viability, T/C [30]: 29.9%
viability, T/C [31]: 92.2%
viability, T/C [32]: 81.3%
viability, T/C [33]: 67.2%
viability, T/C [34]: 44.6%
viability, T/C [35]: 44%
viability, T/C [36]: 34.9%

COc1ccc([C@@H](O)c2cc(-c3ncnc4cc(N5CCOCC5)ccc34)c(F)cc2Cl)nn1 + Cc1cnc(CNC(=O)c2c(=O)c3ccc(N4CCCN(C)CC4)nc3n3c2sc2ccccc23)cn1
IC50 (second compound 0.0316 µM): 1390 nM
IC50 (second compound 0.1 µM): 2050 nM
IC50 (second compound 0.316 µM): 3660 nM
IC50 (second compound 1 µM): 2360 nM
IC50 (second compound 3.16 µM): 1940 nM
IC50 (second compound 10 µM): 1800 nM
viability, T/C [1]: 106%
viability, T/C [2]: 82.7%
viability, T/C [3]: 78.8%
viability, T/C [4]: 47.9%
viability, T/C [5]: 41.9%
viability, T/C [6]: 35.5%
viability, T/C [7]: 94.8%
viability, T/C [8]: 87.4%
viability, T/C [9]: 68.5%
viability, T/C [10]: 57.1%
viability, T/C [11]: 47.2%
viability, T/C [12]: 39.3%
viability, T/C [13]: 97.3%
viability, T/C [14]: 85.3%
viability, T/C [15]: 72.8%
viability, T/C [16]: 60.2%
viability, T/C [17]: 54%
viability, T/C [18]: 40.4%
viability, T/C [19]: 97.3%
viability, T/C [20]: 87.4%
viability, T/C [21]: 83.4%
viability, T/C [22]: 62.8%
viability, T/C [23]: 45.1%
viability, T/C [24]: 35.5%
viability, T/C [25]: 90.9%
viability, T/C [26]: 80.1%
viability, T/C [27]: 78.5%
viability, T/C [28]: 57.6%
viability, T/C [29]: 43.6%
viability, T/C [30]: 34%
viability, T/C [31]: 81.9%
viability, T/C [32]: 78%
viability, T/C [33]: 70.3%
viability, T/C [34]: 55.9%
viability, T/C [35]: 44.1%
viability, T/C [36]: 31.6%
